Source: PubChem BioAssay AID220 (DTP/NCI, 2004)
Several values for one entry are separate records, joined by “and”; a condition that tells them apart may be missing. Identical values can stand only once. Results filed as inconclusive are left out.

Tested on: CD8F1 mice, subcutaneous mammary adenocarcinoma, T/C%
Assay: NCI In Vivo Anticancer Drug Screen. Data for tumor model Mammary Adenocarcinoma CD8F1 (subcutaneous) in CD8F1
Details: higher = larger tumour
In short: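 Tumor-bearing mice, transplantable model; readout survival or tumor size; value = treated (T) / vehicle control (C).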

[1] = endpoint: median tumor weight change, dose: 125.0 mg/kg/injection, schedule: Q01DX001 (ip), vehicle: saline with Tween-80
[2] = endpoint: median tumor weight (est.), dose: 12.5 mg/kg/injection, schedule: Q07DX005 (ip), vehicle: Klucel (hydroxypropylcellulose) (HPC)
[3] = endpoint: median tumor weight (est.), dose: 200.0 mg/kg/injection, schedule: Q07DX005 (ip), vehicle: Klucel (hydroxypropylcellulose) (HPC)

`CC1(C)COCN1COCCOCN1COCC1(C)C` was tested, and the T/C (endpoint: median tumor weight change, dose: 25.0 mg/kg/injection, schedule: Q01DX001 (ip), vehicle: saline) was 100 % of control, the T/C (endpoint: median tumor weight change, dose: 50.0 mg/kg/injection, schedule: Q01DX001 (ip), vehicle: saline) was 109 % of control and the T/C (endpoint: median tumor weight change, dose: 100.0 mg/kg/injection, schedule: Q01DX001 (ip), vehicle: saline) was 95 % of control.

In the case of `CC1(C)COCN1COC1CCCCC1`, the T/C [1] is reported as 79 % of control.

For `c1ccc([Te][Te]c2ccccc2)cc1`, the T/C (endpoint: median tumor weight change, dose: 75.0 mg/kg/injection, schedule: Q01DX001 (ip), vehicle: Klucel (hydroxypropylcellulose) (HPC)) was 97 % of control, the T/C (endpoint: median tumor weight change, dose: 150.0 mg/kg/injection, schedule: Q01DX001 (ip), vehicle: Klucel (hydroxypropylcellulose) (HPC)) was 48 % of control and the T/C (endpoint: median tumor weight change, dose: 300.0 mg/kg/injection, schedule: Q01DX001 (ip), vehicle: Klucel (hydroxypropylcellulose) (HPC)) was 34 % of control.

`O=C1NC(=O)C2C3C=CC(C12)C1C2C(=O)NC(=O)C2C31` (centres undefined) was tested, and the T/C (endpoint: median tumor weight change, dose: 18.0 mg/kg/injection, schedule: Q01DX005 (ip), vehicle: water) was 62 % of control, the T/C (endpoint: median tumor weight change, dose: 30.0 mg/kg/injection, schedule: Q01DX005 (ip), vehicle: water) was 17 % of control and the T/C (endpoint: median tumor weight change, dose: 50.0 mg/kg/injection, schedule: Q01DX005 (ip), vehicle: water) was -5 % of control. The T/C (endpoint: median tumor weight change, dose: 54.0 mg/kg/injection, schedule: Q01DX001 (ip), vehicle: saline) was 64 % of control, the T/C (endpoint: median tumor weight change, dose: 62.0 mg/kg/injection, schedule: Q01DX001 (ip), vehicle: saline with Tween-80) was 70 % of control and the T/C (endpoint: median tumor weight change, dose: 62.5 mg/kg/injection, schedule: Q01DX001 (ip), vehicle: saline with Tween-80) was 78 % of control. The T/C (endpoint: median tumor weight change, dose: 90.0 mg/kg/injection, schedule: Q01DX001 (ip), vehicle: saline) was 30 % of control, the T/C [1] was 15 % of control and 27 % of control and the T/C (endpoint: median tumor weight change, dose: 250.0 mg/kg/injection, schedule: Q01DX001 (ip), vehicle: saline with Tween-80) was -25 % of control.

In the case of `OCCCN1CCCCC1CO` (centres undefined), the T/C (endpoint: median tumor weight change, dose: 125.0 mg/kg/injection, schedule: Q01DX001 (ip), vehicle: saline) is reported as 78 % of control, the T/C (endpoint: median tumor weight change, dose: 250.0 mg/kg/injection, schedule: Q01DX001 (ip), vehicle: saline) is reported as 103 % of control and the T/C (endpoint: median tumor weight change, dose: 500.0 mg/kg/injection, schedule: Q01DX001 (ip), vehicle: saline) is reported as 105 % of control. For the same compound, the T/C (endpoint: median tumor weight change, dose: 1000.0 mg/kg/injection, schedule: Q01DX001 (ip), vehicle: saline) was 103 % of control.

With `C[n+]1cccc(NC(=O)c2ccc(NC(=O)C34CCC(C(=O)Nc5ccc(C(=O)Nc6ccc[n+](C)c6)cc5)(CC3)CC4)cc2)c1` the T/C (endpoint: median tumor weight change, dose: 50.0 mg/kg/injection, schedule: Q01DX001 (ip), vehicle: saline with Tween-80) was 57 % of control and 78 % of control (2×) and the T/C (endpoint: median tumor weight change, dose: 200.0 mg/kg/injection, schedule: Q01DX001 (ip), vehicle: saline with Tween-80) was -66 % of control.

`CS(=O)(=O)c1ncc(Br)cn1` was tested, and the T/C (endpoint: median tumor weight (est.), dose: 6.25 mg/kg/injection, schedule: Q07DX005 (ip), vehicle: saline with Tween-80) was 242 % of control, the T/C (endpoint: median tumor weight (est.), dose: 12.5 mg/kg/injection, schedule: Q07DX005 (ip), vehicle: saline with Tween-80) was 405 % of control and the T/C (endpoint: median tumor weight (est.), dose: 25.0 mg/kg/injection, schedule: Q07DX005 (ip), vehicle: saline with Tween-80) was 222 % of control. For the same compound, the T/C (endpoint: median tumor weight (est.), dose: 50.0 mg/kg/injection, schedule: Q07DX005 (ip), vehicle: saline with Tween-80) was 286 % of control, the T/C (endpoint: median tumor weight (est.), dose: 100.0 mg/kg/injection, schedule: Q07DX005 (ip), vehicle: saline with Tween-80) was 348 % of control and the T/C (endpoint: median tumor weight (est.), dose: 200.0 mg/kg/injection, schedule: Q07DX005 (ip), vehicle: saline with Tween-80) was 311 % of control.

For `CC(CN1CC(=O)NC(=O)C1)N1CC(=O)NC(=O)C1` (centres undefined), the T/C [2] was 59 % of control, the T/C (endpoint: median tumor weight (est.), dose: 25.0 mg/kg/injection, schedule: Q07DX005 (ip), vehicle: Klucel (hydroxypropylcellulose) (HPC)) was 84 % of control and the T/C (endpoint: median tumor weight (est.), dose: 50.0 mg/kg/injection, schedule: Q07DX005 (ip), vehicle: Klucel (hydroxypropylcellulose) (HPC)) was 41 % of control. For the same compound, the T/C [3] was 21 % of control and 29 % of control and the T/C (endpoint: median tumor weight (est.), dose: 400.0 mg/kg/injection, schedule: Q07DX005 (ip), vehicle: Klucel (hydroxypropylcellulose) (HPC)) was 5 % of control and 11 % of control.

For `COc1ccc(OC)c(Cc2cnc3nc(N)nc(N)c3c2C)c1`, the T/C (endpoint: median tumor weight change, dose: 31.25 mg/kg/injection, schedule: Q01DX001 (ip), vehicle: other) was 47 % of control and the T/C (endpoint: median tumor weight change, dose: 62.5 mg/kg/injection, schedule: Q01DX001 (ip), vehicle: other) was 64 % of control.

For `CC(=O)OCc1cc(=O)n(C)c2c3c4c(cc12)c(C)cc(=O)n4CO3`, the T/C (endpoint: median tumor weight (est.), dose: 6.25 mg/kg/injection, schedule: Q07DX005 (ip), vehicle: Klucel (hydroxypropylcellulose) (HPC)) was 42 % of control, the T/C [2] was 66 % of control and 78 % of control and the T/C (endpoint: median tumor weight (est.), dose: 100.0 mg/kg/injection, schedule: Q07DX005 (ip), vehicle: Klucel (hydroxypropylcellulose) (HPC)) was 19 % of control and 43 % of control. For the same compound, the T/C [3] was 22 % of control and 26 % of control.
